Tests used:
[1] = target: T1, E. coli DH5α tryptophan synthase (TrpBA) (Escherichia coli, UniProt P0A879); assay type: biochemical; design: key: +: a clear ninhydrin-positive spot at the Rf of standard tryptophan derivatives after 16-65 h; (+): a weak spot in the product region; −: no product observed; NR: experiment not run; conditions: indole derivative + L-serine + PLP, 37° C., 16-65 h, ninhydrin
T1 construct: made in house; host or cells: E. coli LMG194 (pBAD) or BL-21 (pET)

tryptophanase (TnA) = target: T2, tryptophanase (TnA) (Escherichia coli, UniProt P0A853); assay type: biochemical, E. coli; design: key: +: a clear ninhydrin-positive spot at the Rf of standard tryptophan derivatives after 16-65 h; (+): a weak spot in the product region; −: no product observed; NR: experiment not run; conditions: indole derivative + L-serine + PLP, 37° C., 16-65 h, ninhydrin
T2 construct: made in house; host or cells: E. coli LMG194 (pBAD) or BL-21 (pET)

TrpBA = target: T3, TrpBA (Escherichia coli, UniProt P0A879); assay: Relative rates of tryptophan derivative synthesis by HPLC, TrpBA; assay type: biochemical, E. coli; design: key: **: rate too slow to quantitate; conditions: initial rate estimated by HPLC, indole = 100%
T3 construct: made in house; host or cells: E. coli LMG194 (pBAD) or BL-21 (pET)
Procedure: (§1) Reaction mixtures were prepared as in Example 6 and were incubated at 37° C. Aliquots (100 μL) were removed and quenched by addition of to 300 μL of 0.5 M sodium citrate, pH 3.0 in 10% v/v acetonitrile/water in 2 ml microcentrifuge tubes. Following centrifugation for 10 min at 13,000×g, the supernatants were passed through 0.45μ membrane filters prior to HPLC analysis of 20 μL of filtrate.
(§2) TnA reactions were run with L-serine as the 3-carbon substrate.

TnA = target: T4, TnA (Escherichia coli, UniProt P0A853); assay: Relative rates of tryptophan derivative synthesis by HPLC, TnA; assay type: biochemical, E. coli; conditions: initial rate estimated by HPLC, indole = 100%, L-serine as the 3-carbon substrate
T4 construct: made in house; host or cells: E. coli LMG194 (pBAD) or BL-21 (pET)
Procedure: as §1, with “Aliquots” for “Reaction mixtures were prepared as in Example 6 and were incubated at 37° C. Aliquots”
as §2

TrpBA and TDC1 = assay: Coupled enzyme synthesis monitored by HPLC; assay type: biochemical; conditions: L-serine, PLP, pH 8.5 phosphate buffer, 37° C.
Procedure: To a solution containing L-serine (25 μmol), pyridoxal phosphate (0.05 μmol) and TrpBA (0.02 to 1.5 units, depending on the substrate), TDC1 (0.2 mL 0.6 units) and KPi buffer (0.05 mmol, pH 7.5) in a volume of 0.8 mL were added […] of 5 mM indole derivative in 20% v/v ethanol/water. The mixture was incubated at 37° C. and aliquots were quenched and analyzed as described for Example 8. In cases where tryptamine and/or tryptophan standards were not available, peaks were collected for mass spectral analysis. Electrospray mass spectral analyses were performed.
Mixtures containing indole, L-serine, PLP and TDC1 were incubated in pH 8.5 phosphate buffer, analyzing aliquots by HPLC, as described in Example 12.
The procedure used in Example 24 was carried out by substituting indole with 2-methylindole, 4-hydroxymethylindole, 5-methoxy-, 5-hydroxymethyl-, 5-methoxycarbonyl, and 5,6-dimethoxyindole.

pkAAAD [2] = target: T5, pkAAAD (Sus scrofa, UniProt P80041); assay: pkAAAD-catalyzed decarboxylation rate ratio by HPLC; assay type: biochemical, pig; conditions: HPLC of acid-quenched aliquots, ratio to 1
T5 construct: Frozen tissue was partially thawed in lysis buffer, then it was extracted and partially purified; from tissue; host or cells: pig kidney
T5 sequence (P80041 1-486): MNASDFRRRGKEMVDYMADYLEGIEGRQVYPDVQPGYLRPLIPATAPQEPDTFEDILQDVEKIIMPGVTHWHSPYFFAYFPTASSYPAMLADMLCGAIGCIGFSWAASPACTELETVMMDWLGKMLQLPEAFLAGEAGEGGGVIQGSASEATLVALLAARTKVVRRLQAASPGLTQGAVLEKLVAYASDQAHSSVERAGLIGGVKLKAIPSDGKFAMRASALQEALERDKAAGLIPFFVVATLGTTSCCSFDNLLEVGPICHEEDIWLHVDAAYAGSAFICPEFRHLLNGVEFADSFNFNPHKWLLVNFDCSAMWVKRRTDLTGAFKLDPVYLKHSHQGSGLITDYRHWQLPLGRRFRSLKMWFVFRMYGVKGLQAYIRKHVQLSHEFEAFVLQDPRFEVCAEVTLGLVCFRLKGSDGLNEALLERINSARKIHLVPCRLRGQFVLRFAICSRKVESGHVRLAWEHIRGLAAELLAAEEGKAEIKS
Procedure: Tryptophan synthase activity was assayed by monitoring the increase in absorbance at 290 nm of a mixture containing serine, indole and PLP (Higgins, W., et al., Biochemistry, 1979, 18, 4827). TnA-catalyzed tryptophan synthesis was also measured by the 290 nm assay, while the tryptophan lyase reaction rate was measured by monitoring the reduction in NADH in reaction mixtures containing L-tryptophan and lactate dehydrogenase, indicating the amount of pyruvate released. Tryptophan decarboxylase was assayed colorimetrically by monitoring the sabsorbance at 580 nm produced by serotonin (AAADs) or tryptamine (TDCs) following treatment of reaction aliquots with Ehrlich's reagent (4-N,N-(dimethyl)aminobenzaldehyde in ethanolic HCl; Nakazawa, H.; Kumagi, H.; Yamada, H. Biochem Biophys. Res. Commun., 1974, 61, 75-82). Serotonin could be detected with approximately 5-fold higher sensitivity by this method as compared with tryptamine. The Ehrlich reagent assay using a microtiter plate format for simultaneous analysis of multiple enzyme samples may also be used. HPLC analysis was performed on acid-quenched reaction aliquots by using a base-deactivated C8 reversed-phase support (Shandon Hypersil BD8). […]

pkAAAD [3] = target: T5, pkAAAD; conditions: literature (Sourkes 1987), ratio :1; cited from earlier work

T2 sequence (P0A853 whole entry): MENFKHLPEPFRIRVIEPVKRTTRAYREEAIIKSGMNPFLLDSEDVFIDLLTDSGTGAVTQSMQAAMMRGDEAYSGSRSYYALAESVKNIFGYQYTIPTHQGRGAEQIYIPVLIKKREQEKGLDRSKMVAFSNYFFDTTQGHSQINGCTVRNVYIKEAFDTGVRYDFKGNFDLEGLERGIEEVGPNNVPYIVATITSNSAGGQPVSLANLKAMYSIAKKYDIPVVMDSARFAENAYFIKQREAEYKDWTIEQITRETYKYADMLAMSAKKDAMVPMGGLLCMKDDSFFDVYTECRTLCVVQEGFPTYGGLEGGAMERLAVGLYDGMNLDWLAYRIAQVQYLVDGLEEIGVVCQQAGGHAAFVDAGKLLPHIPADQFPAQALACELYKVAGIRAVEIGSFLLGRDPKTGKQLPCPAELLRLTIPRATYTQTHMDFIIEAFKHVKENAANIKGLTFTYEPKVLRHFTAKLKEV
T4 sequence (P0A853 whole entry): as above
T3 sequence (P0A879 whole entry): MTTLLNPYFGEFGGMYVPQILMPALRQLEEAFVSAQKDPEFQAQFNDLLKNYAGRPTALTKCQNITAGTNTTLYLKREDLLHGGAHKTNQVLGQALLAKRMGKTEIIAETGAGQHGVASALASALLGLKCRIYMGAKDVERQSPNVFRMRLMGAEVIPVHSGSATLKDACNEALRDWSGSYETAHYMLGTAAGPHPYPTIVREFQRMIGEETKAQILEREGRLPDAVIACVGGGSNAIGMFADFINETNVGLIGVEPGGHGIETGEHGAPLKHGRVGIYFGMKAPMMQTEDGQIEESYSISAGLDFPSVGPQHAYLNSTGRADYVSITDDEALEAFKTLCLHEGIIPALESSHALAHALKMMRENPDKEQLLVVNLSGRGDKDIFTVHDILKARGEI
T3 sequence (P0A877 whole entry, further chain): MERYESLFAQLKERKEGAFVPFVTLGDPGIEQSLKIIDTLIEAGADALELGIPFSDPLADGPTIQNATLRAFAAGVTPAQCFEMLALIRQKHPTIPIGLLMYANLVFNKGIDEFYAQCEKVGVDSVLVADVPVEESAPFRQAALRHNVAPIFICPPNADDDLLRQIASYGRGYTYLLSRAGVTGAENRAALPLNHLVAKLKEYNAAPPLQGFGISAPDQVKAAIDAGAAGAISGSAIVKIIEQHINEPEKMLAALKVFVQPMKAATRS
T1 sequence (P0A879 whole entry): as the sequence (P0A879 whole entry) above
T1 sequence (P0A877 whole entry, further chain): as the sequence (P0A877 whole entry, further chain) above

SMILES: COc1cc2cc[nH]c2cc1OC [5,6-dimethoxy, 5,6-dimethoxyindole]
- TrpBA (tryptophan product spot, TLC analysis) [1]: −
- TnA (tryptophan product spot, TLC analysis) (tryptophanase (TnA)): (+)
- Relative rate (TrpBA) (TrpBA): **
- Relative Rate (TnA) (TnA): 2.1%
- formation of tryptophan derivative and tryptamine (HPLC peaks) (TrpBA and TDC1): a second peak representing formation of tryptamine

SMILES: N[C@@H](Cc1ccc(O)c(O)c1)C(=O)O [DOPA]
- rate ratio of DOPA decarboxylation relative to that of L-5-hydroxytryptophan (pkAAAD [2]): 4.5
- accepted ratio of DOPA to L-5-hydroxytryptophan decarboxylation (pkAAAD [3]): approximately 5

Source: patent US20030096379A1, “Method for producing tryptamine derivatives” (priority 2001, published 2003)
